The source of these data is paper PMC1079869 (BMC Neuroscience, 2005).

Assay [1] has as its system pain. Set-up: method as in 5 sources, ref 1 = [1]; PMID 3865193; doi:10.1073/pnas.82.22.7757; Yang H-YT Fratta W Majane EA Costa E Isolation, sequencing, synthesis, and pharmacological characterization of two brain neuropeptides that modulate the action of morphine Proc Natl Acad Sci U S A 198 ||| ref 4 = [4]; PMID 8821539; doi:10.1111/j.1476-5381.1996.tb15217.x; Gouarderes C Jhamandas K Sutak M Zajac JM Role of opioid receptors in the spinal antinociceptive effects of neuropeptide FF analogues Br J Pharmacol 1996 117 493 501 8821539 10.1111/j.1476-5381.1996.t ||| ref 44 = [44]; PMID 10499424; doi:10.1016/S0196-9781(99)00100-X; Xu M Kontinen VK Panula P Kalso E Effects of (1DMe)NPYF, a synthetic neuropeptide FF analogue, in different pain models Peptides 1999 20 1211 1217 10499424 10.1016/S0196-9781(99)00100-X ||| ref 4, 44 = [4]; PMID 8821539; doi:10.1111/j.1476-5381.1996.tb15217.x; Gouarderes C Jhamandas K Sutak M Zajac JM Role of opioid receptors in the spinal antinociceptive effects of neuropeptide FF analogues Br J Pharmacol 1996 117 493 501 8821539 10.1111/j.1476-5381.1996.t || [44]; PMID 10499424; doi:10.1016/S0196-9781(99)00100-X; Xu M Kontinen VK Panula P Kalso E Effects of (1DMe)NPYF, a synthetic neuropeptide FF analogue, in different pain models Peptides 1999 20 1211 1217 10499424 10.1016/S0196-9781(99)00100-X ||| ref 46 = [46]; PMID 12507715; doi:10.1016/S0304-3959(02)00333-0; Cahill CM Morinville A Hoffert C O'Donnell D Beaudet A Up-regulation and trafficking of delta opioid receptor in a model of chronic inflammation: implications for pain control Pain 2003 101 199 208 12. Particulars: cited from earlier work; for effect on NPFF-induced analgesia / antinociception: opioid antagonist against intrathecal NPFF; for antagonism of analgesic effects of NPFF in vivo: opioid antagonists.

The target of assay [2] is T1, c-MYC-tagged human delta opioid receptor (Homo sapiens, UniProt P41143). The experiment in a line: FACS analysis of agonist-induced DOR internalization (cell surface fluorescence). For orientation: In flow cytometry, cells or beads pass a laser one at a time.
Description: The CHO/MYChDOR cells were collected and suspended into the culture medium. The cells were treated with drugs in suspension as for the immunocytochemistry for the indicated times. After the incubation, the membrane trafficking was stopped by rapidly chilling the cells on ice and removing the medium. After this the cells were kept on ice. The cells were washed with PBS and stained in PBS-suspension with rabbit anti-MYC antibody (1 % normal goat serum (v/v) used to block unspecific binding), followed by the detection with a fluorescent secondary antibody. Dead cells were detected with isopropidium iodide. Cells were analyzed with FACScan flow cytometer (Becton Dickinson and Co., Mountain View, CA, USA). Data from 10000 cells were collected for each run and each sample was run in replicate or triplicate.
The internalization percent was calculated as: [drawing 1] where F(ctrl) in the fluorescence of the time-matched control cells and the F(sample) is the fluorescence measured from the drug-treated cells.
10000 cells/sample were analyzed with FACS.
The target of assay [3] is T1, c-MYC-tagged human delta opioid receptor. The experiment in a line: Tb-DeltI binding on CHO/MYChDOR whole cells, effect of (1DMe)NPYF (time-resolved fluorometry). On the procedure:
6 μg of crude membrane preparations or whole cells (25 000 cell/well) that were plated one day before experiment and fixed with 4 % PFA for 10 min at room temperature, were used in the saturation binding experiments. The whole cell assays were carried out on normal cell culture plates and the assays with membrane preparations on special filter plates (Pall Life Sciences). The cells or membranes were incubated in 50 mM Tris/HCl pH 7.5; 2.5 mM MgCl2; 60 mM NaCl; 25 μM EDTA, 0.2 % BSA (w/v) for 90 min at room temperature with 0.01 – 781.25 nM Tb-DeltI in the presence or absence of 1 or 5 μM unlabeled DeltI. To study the effect of (1DMe)NPYF on the Tb-DeltI binding, 1–1000 nM (1DMe)NPYF was added together with unlabeled DeltI. After the incubation the unbound Tb-DeltI was removed by washing the plates four times with 50 mM Tris/HCl pH 7.5; 2.5 mM MgCl2. Vacuum pump system was used to wash the filter plates. Since the chelate-bound Tb-ion is nonfluorescent, it needed to be released from the complex. In order to release Tb-ion from the chelate 150 μl Delfia enhancement solution was added to the wells and the plates were incubated on a shaker for 15 min. Thereafter, 40 μl Delfia enhancer that changes the pH of the assay solution appropriate for Tb-fluorescence was added, and the plates were further incubated for 5 min on a shaker. The time-resolved fluorescence of the released Tb-ion was measured with Victor^2 Multilabel counter (Perkin Elemer Wallac, Turku, Finland).

The test system of assay [4] is MAP-kinase p42MAPK (ERK2). Put plainly: Phosphorylation of MAPK (ERK2) in CHO/MYChDOR cells, immunoblot. It is filed as cell-based, Chinese hamster. On the procedure:
25000 cells/well were seeded onto 24-well plates and incubated o/n. The medium was replaced with serum-free medium and the cells were incubated for one hour at 37°C. […] The reaction was stopped by removing the medium and adding modified RIPA-lysis buffer (PBS, pH 7.6; 1 % Nonidet P-40 (v/v); 0.5 % sodium deoxycholate (w/v); 0.1 % SDS (w/v), 10 mM NaF; 0.4 mM PMSF, 10 μg/ml aprotinin, 10 μg/ml leupeptin, 2 mM […]; 0.2 mM bestatin). Cells were lysed on ice for 15 min and the lysates were collected. The protein content was determined with the Bradford method.
10 μg of protein was analyzed on 10 % SDS-PAGE gel and the gel was blotted onto nitrocellulose membrane. […] After washes, the membrane was detected with the ECL-protocol. The band intensities were measured with AlphaDigiDoc1000 documentation system (Alpha Innotech, San Leandro, CA, USA). […]
Figure 6 DOR agonist induced phosphorylation of the MAP-kinase, ERK2, is increased by (1DMe)NPYF. A. Total cell lysates (10 μg protein per lane) were detected with phosphoERK2 and total ERK2 specific antibodies. […] B. The band intensities of phosphoERK2 were quantified and they are presented as relative band intensities with respect to the total ERK2. […] The statistical significance between time-points and treatments was analyzed with two-way Anova with Bonferroni's post-test, n = 5. […]

Assay [5] deals with T1, c-MYC-tagged human delta opioid receptor. It is filed as cell-based.
Assay [6] deals with presynaptic DOR. To be noted: pontine parabrachial nucleus, via presynaptic DOR; cited from earlier work. The source says: (§1) The interaction between NPFF and opioid system in pain and analgesia seems to be complex in nature and the molecular mechanisms behind the observed physiological effects are not known. […] In the rat spinal cord, the highest NPFF-like immunoreactivity is found in the superficial layers of the dorsal h ...

Assay [7] concerns opioid receptor subtypes. Particulars: any opioid receptor subtype; cited from earlier work.
From the text: as §1

In assay [8] the test system is neuropathic rats. Particulars: periaqueductal grey; cited from earlier work.
From the text: as §1

Assay [9] relates to opioid withdrawal syndrome. Particulars: supraspinal administration; cited from earlier work.
From the text: as §1

The subject of assay [10] is NPFF2R. To be noted: cited from earlier work. From the text:
(§2) At the physiological level NPFF seems to have both a direct analgesic effect and a modulatory effect on the opioid system. Some of the effects may be mediated via the NPFF receptors as two such receptors, NPFF1R and NPFF2R, have been identified. […] Also the other RFamide peptides bind to the NPFF receptors with varying affinities, and therefore the exact nature of the receptor-ligand interactions between RFamides and their receptors is still unclear.

The test system of assay [11] is NPFF1R. Particulars: cited from earlier work.
From the text: as §2

Assay [12] relates to rat pituitary cells. Particulars: cited from earlier work. From the text: The dose-dependence of NPFF-agonist on the BMAX was bell-shaped. This could imply that the NPFF-analogue affects only some conformations of the receptor. […] However, the receptor involved in the prolactin release mechanism was not characterized.
[13] abbreviates: 100 nM (1DMe)NPYF alone, 5, 10, 30 min, 37°C.

“Also recorded” adds a separate entry of the source.

T1 sequence (P41143 whole entry): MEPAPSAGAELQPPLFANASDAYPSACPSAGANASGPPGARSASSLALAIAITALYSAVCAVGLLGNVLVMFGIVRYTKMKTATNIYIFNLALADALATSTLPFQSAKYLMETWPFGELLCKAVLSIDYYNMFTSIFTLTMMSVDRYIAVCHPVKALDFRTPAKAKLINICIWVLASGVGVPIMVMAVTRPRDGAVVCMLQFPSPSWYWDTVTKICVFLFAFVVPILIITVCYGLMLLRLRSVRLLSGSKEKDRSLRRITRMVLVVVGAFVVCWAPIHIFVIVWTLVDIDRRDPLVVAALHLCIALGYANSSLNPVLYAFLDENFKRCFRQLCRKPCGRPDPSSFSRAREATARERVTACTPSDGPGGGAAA

Take `C=CCN1CC[C@]23c4c5ccc(O)c4O[C@H]2C(=O)CC[C@@]3(O)[C@H]1C5` [naloxone]: in assay [1], the “effect on NPFF-induced analgesia / antinociception” value is recorded as “reduced” and the “antagonism of analgesic effects of NPFF in vivo” value was “blocked”.

`Oc1ccc2c3c1O[C@H]1c4[nH]c5ccccc5c4C[C@@]4(O)[C@@H](C2)N(CC2CC2)CC[C@]314` [naltrindole]: in assay [1], the “effect on NPFF-induced analgesia / antinociception” value is on record as “inhibits the NPFF-induced antinociception; also recorded: reduced” and the “antagonism of analgesic effects of NPFF in vivo” value is on record as “blocked”. Besides, the “block of receptor activation by DOR agonists and of enhanced activation by co-applied (1DMe)NPYF” value in assay [2] (DOR antagonist with DOR agonists ± (1DMe)NPYF) was “could completely block”.

With D-YL-(NMe)-FQPQRF-NH2 [(1DMe)NPYF], the “effect on the BMAX for Tb-DeltI” value in assay [3] (1 nM and 10 nM (1DMe)NPYF, whole cells) was “significantly decreased the BMAX”. Besides, in assay [3] (1–1000 nM (1DMe)NPYF, whole cells), the “effect on the KD for Tb-DeltI” value is given as “only modestly affected”. Besides, the “dose-dependence of effect on the BMAX” value in assay [3] (1–1000 nM, whole cells) is “bell-shaped”. For the same compound, the “effect on the BMAX for Tb-DeltI” value in assay [3] (higher concentrations of (1DMe)NPYF, whole cells) was “affected the BMAX only modestly”. Besides, the “displacement of Tb-DeltI at micromolar concentration” value in assay [3] (only micromolar concentration, whole cell and membrane assays) is “could displace Tb-DeltI in whole cell and membrane binding assays to some extent”. In [4] (setting [13]), the “activation of ERK2” value is reported as “did not result in the activation of ERK2”. Also, the “effect on ERK2 activation induced by DPDPE” value in [4] (100 nM (1DMe)NPYF together with 100 nM DPDPE) is recorded as “significantly promoted the activation induced by DPDPE”. In addition, the DOR internalization entry in [2] (setting [13]) is “did not induce receptor internalization at any time-point tested”. Besides, the cell surface fluorescence entry in assay [2] (100 nM (1DMe)NPYF alone, 30 min, vs time-matched control cells) is “somewhat higher fluorescence”. In addition, in [5], the “effect on DPDPE-induced cAMP inhibition” value is “had hardly an effect on the cAMP accumulation”; the “effect on DPDPE-induced inhibition of cAMP accumulation” value is listed as “enhanced the DOR agonist induced inhibition of cAMP accumulation significantly at all tested DPDPE concentrations”; the “effect on the amount of cAMP” value is recorded as “did not have any significant effect on the amount of cAMP”; the “enhancement of inhibitory effect of DOR agonists on cAMP accumulation” value is listed as “able to enhance the inhibitory effect of other DOR agonists, e.g. DeltI”.

“FLFQPQRFamide [NPFF, RFamide peptide originally isolated from bovine brain]”: the “modulation of synaptic transmission” value in assay [6] is recorded as “modulates synaptic transmission through interaction with presynaptic DOR”. The “displacement of opioid receptor ligands” value in assay [7] was “does not displace opioid receptor ligands from any of the opioid receptor subtypes”. Also, the “attenuation of tactile allodynia” value in assay [8] is “selective attenuation of tactile allodynia”. In [9], the opioid withdrawal syndrome entry is recorded as “precipitates opioid withdrawal syndrome”. Moreover, the “binding to NPFF2R” value in assay [10] is listed as “binds to both of them”. In addition, the “binding to NPFF1R” value in assay [11] is “binds to both of them”. In addition, the “effect on opiate-induced analgesia” value in assay [1] is “potentiated”. Also, the “analgesia, intrathecal” value in [1] (intrathecal) is on record as “long-lasting analgesia”. The “effect on opioid antinociception” value in assay [1] (supraspinal administration) is listed as “attenuates opioid antinociception”. Moreover, the “effect on prolactin release, dose-response” value in assay [12] is given as “bell-shaped dose-response curve”.

“Y-D-AFDVVG-NH2 [DeltI, peptidic DOR agonist]”: the “enhanced antinociceptive activity correlated with receptor recruitment” value in [1] (recruitment of spinal opioid receptors to plasma membrane, inflammation) is reported as “enhanced antinociceptive activity of DeltI is correlated with the recruitment of spinal opioid receptors from intracellular stores to the plasma membrane”.
